Measured values reported in patent US4661602A, “Substituted alkyl imidazole derivatives” (G. D. Searle & Co., priority 1985, dated 1987).
Values after ≈ are worked out from the molar mass of the structure shown. Counter-ions that a name gives are not always drawn.

Experiments:
[1] = tested on: B. Fragilis NCTC 10581; assay: Anti-anaerobic activity, strain A (microtitre plate MIC/MBC); format: cell-based, Bacteroides fragilis; settings: Bacteroides fragilis, NCTC10581, 48 h, strain A; for MIC: 48 hours, 37° C., anaerobic chamber, lowest concentration with no detectable growth, read-out: MIC; for MBC: less than 5 colonies (99.9% reduction in viable count) after 48 hours, read-out: MBC
[2] = tested on: B. Fragilis ATCC 11295; assay: Anti-anaerobic activity, strain D (microtitre plate MIC/MBC); format: cell-based; settings: Bacteroides fragilis, ATCC11295, 48 h, strain D; for MIC: 48 hours, 37° C., anaerobic chamber, lowest concentration with no detectable growth; for MBC: less than 5 colonies (99.9% reduction in viable count) after 48 hours, read-out: MBC
[3] = tested on: B. Fragilis NCTC 9343; assay: Anti-anaerobic activity, strain B (microtitre plate MIC/MBC); format: cell-based, Bacteroides fragilis; settings: Bacteroides fragilis, NCTC9343, 48 h, strain B; for MIC: 48 hours, 37° C., anaerobic chamber, lowest concentration with no detectable growth, read-out: MIC; for MBC: less than 5 colonies (99.9% reduction in viable count) after 48 hours, read-out: MBC
[4] = tested on: B. Fragilis WS-1; assay: Anti-anaerobic activity, strain E (microtitre plate MIC/MBC); format: cell-based; settings: Bacteroides fragilis, 48 h, strain E; for MIC: 48 hours, 37° C., anaerobic chamber, lowest concentration with no detectable growth, read-out: MIC; for MBC: less than 5 colonies (99.9% reduction in viable count) after 48 hours, read-out: MBC
[5] = tested on: B. Fragilis NCTC 9344; assay: Anti-anaerobic activity, strain C (microtitre plate MIC/MBC); format: cell-based; settings: Bacteroides fragilis, NCTC9344, 48 h, strain C; for MIC: 48 hours, 37° C., anaerobic chamber, lowest concentration with no detectable growth, read-out: MIC; for MBC: less than 5 colonies (99.9% reduction in viable count) after 48 hours, read-out: MBC
[6] = tested on: Peptococc. magnus ATCC 29328; assay: Anti-anaerobic activity, additional strains; format: cell-based; settings: Peptococc. magnus ATCC 29328
[7] = tested on: Peptostrepto anaerobicus ATCC 27337; assay: Anti-anaerobic activity, additional strains; format: cell-based
[8] = tested on: Clostridium perfringens NCTC 523; assay: microbe, parasite or virus in culture; format: cell-based; settings: NCTC523
[9] = tested on: Cl. perfringens NCTC 8237; assay: microbe, parasite or virus in culture; format: cell-based; settings: Clostridium perfringens, NCTC8237
[10] = tested on: Propionibacterium acnes NCTC 737; assay: Anti-anaerobic activity, additional strains; format: cell-based; settings: Cutibacterium acnes, NCTC737
[11] = tested on: Campl. fetus ATCC 29428; assay: Anti-anaerobic activity, additional strains; format: cell-based; settings: Campylobacter fetus, ATCC29428, Campl. fetus ATCC 29428
[12] = tested on: Trichomonas vaginalis; assay: MIC against Trichomonas vaginalis (Diamonds Medium); format: cell-based
[13] = tested on: P. prevotti ATCC 9321; assay: Anti-anaerobic activity, additional strains; format: cell-based
[14] = tested on: P. acnes NCTC 7337; assay: Anti-anaerobic activity, additional strains; format: cell-based, Propionibacterium acnes; settings: Cutibacterium acnes, NCTC7337, P. acnes NCTC 7337
[15] = tested on: Fuso. necrophorum ATCC 11295; assay: Anti-anaerobic activity, additional strains; format: cell-based; settings: Fusobacterium necrophorum, ATCC11295

Compound	MIC [1]	MIC [2]	MIC [3]	MIC [4]	MIC [5]	MBC [1]	MBC [2]	MBC [3]	MBC [4]	MBC [5]	further results
FC(F)(F)c1cccc(N2CCN=C2C(Cn2ccnc2)c2ccccc2)c1 (stereo not shown) [Example 4, 4,5-Dihydro-2-[2-(imidazol-1-yl)-1-phenylethyl]-1-(3-trifluoromethylphenyl)imidazole hydrochloride]	6.2 µg/mL	12.5 µg/mL	12.5 µg/mL	12.5 µg/mL	12.5 µg/mL						
Clc1ccc(CN2CCN=C2C(Cn2cccn2)c2ccccc2)c(Cl)c1 (stereo not shown) [Example 16, 1-(2,4-Dichlorophenylmethyl)-4,5-dihydro-2-[1-phenyl-2-(pyrazol-1-yl)ethyl]imidazole dihydrochloride]				100 µg/mL							
Clc1ccccc1N1CCN=C1C(Cn1ccnc1)c1ccccc1 (stereo not shown) [Example 1, 1-(2-Chlorophenyl)-4,5-dihydro-2[2-(imidazol-1-yl)-1-phenylethyl]imidazole]		6.2 µg/mL (≈ 17.7 µM)	12.5 µg/mL (≈ 35.6 µM)	12.5 µg/mL (≈ 35.6 µM)	6.2 µg/mL (≈ 17.7 µM)						
CCCCCCCCN1CCN=C1C(Cn1ccnc1)c1ccccc1 (stereo not shown) [Example 19, 4,5-Dihydro-2-[2-(imidazol-1-yl)-1-phenylethyl]-1-n-octylimidazole dihydrochloride]	12.5 µg/mL	25 µg/mL		12.5 µg/mL	12.5 µg/mL	25 µg/mL	100 µg/mL	6.2 µg/mL	12.5 µg/mL	25 µg/mL	
Clc1ccc(N2CCN=C2C(CCn2ccnc2)c2ccccc2)c(Cl)c1 (stereo not shown) [Example 27, 1-(2,4-Dichlorophenyl)-4,5-dihydro-2-[3-(imidazol-1-yl)-1-phenylpropyl]imidazole]	100 µg/mL (≈ 250 µM)	100 µg/mL (≈ 250 µM)	100 µg/mL (≈ 250 µM)	12.5 µg/mL (≈ 31.3 µM)	100 µg/mL (≈ 250 µM)						
Clc1ccc(CN2CCN=C2C(Cn2ccnc2)c2ccccc2)c(Cl)c1 (stereo not shown) [Example 15, 1-(2,4-Dichlorophenylmethyl)-4,5-dihydro-2-[2-(imidazol-1-yl)-1-phenylethyl]imidazole]				6.2 µg/mL (≈ 15.5 µM)							
Clc1ccc(N2CCN=C2C(Cn2ccnc2)c2ccccc2)c(Cl)c1 (stereo not shown) [Example 3, 1-(2,4-Dichlorophenyl)-4,5-dihydro-2-[2-(imidazol-1-yl)-1-phenylethyl]imidazole hydrochloride]			1.5 µg/mL	1.5 µg/mL		0.8 µg/mL	0.8 µg/mL	1.5 µg/mL		0.8 µg/mL	MIC [6]: 1.5 µg/mL; MBC ([6]; read-out: MBC): 6.2 µg/mL; MBC [7]: 3.1 µg/mL; MIC ([7]; Peptostrepto anaerobicus ATCC 27337): 1.5 µg/mL; MBC [8]: 3.1 µg/mL; MIC [8]: 0.8 µg/mL; MBC [9]: 3.1 µg/mL; MIC [9]: 3.1 µg/mL; MBC [10]: 3.1 µg/mL; MIC ([10]; Propionibacterium acnes NCTC 737, read-out: MIC): 0.8 µg/mL; MBC ([11]; read-out: MBC): 6.2 µg/mL; MIC ([11]; read-out: MIC): 1.5 µg/mL; MIC [12]: 3.1 µg/mL; MIC [13]: 3.1 µg/mL; MBC ([13]; P. prevotti ATCC 9321): 12.5 µg/mL; MBC ([14]; read-out: MBC): 0.8 µg/mL; MIC ([14]; read-out: MIC): 0.8 µg/mL; MIC [15]: 3.1 µg/mL; MBC ([15]; Fuso. necrophorum ATCC 11295, read-out: MBC): 6.2 µg/mL
c1ccc(CCCN2CCN=C2C(Cn2ccnc2)c2ccccc2)cc1 (stereo not shown) [Example 18, 4,5-Dihydro-2-[2-(imidazol-1-yl)-1-phenylethyl]-1-(3-phenylpropyl)imidazoledihydrochloride]	25 µg/mL	25 µg/mL	25 µg/mL	25 µg/mL	50 µg/mL						
CC1=NCCN1CC(C1=NCCN1c1ccc(Cl)cc1Cl)c1ccccc1 (stereo not shown) [Example 23, 1-(2,4-Dichlorophenyl)-4,5-dihydro-2-[2-(4,5-dihydro-2-methylimidazol-1-yl)-1-phenylethyl]imidazole dihydrochloride]	1.5 µg/mL	1.5 µg/mL	1.5 µg/mL		1.5 µg/mL	1.5 µg/mL	1.5 µg/mL	3.1 µg/mL	1.5 µg/mL	1.5 µg/mL	
Cc1nccn1CC(C1=NCCN1c1ccc(Cl)cc1Cl)c1ccccc1 (stereo not shown) [Example 21, 1-(2,4-Dichlorophenyl)-4,5-dihydro-2-[2-(2-methylimidazol-1-yl)-1-phenylethyl]imidazole dihydrochloride]	12.5 µg/mL		1.5 µg/mL			12.5 µg/mL	0.8 µg/mL	1.5 µg/mL	0.8 µg/mL	0.8 µg/mL	
CCCCCCCCCCN1CCN=C1C(Cn1ccnc1)c1ccccc1.Cl.Cl (stereo not shown) [Example 26, 1-n-Decyl-4,5-dihydro-2-[2-(imidazol-1-yl)-1-phenylethyl]imidazole dihydrochloride]	2.1 µg/mL					3.1 µg/mL	50 µg/mL		3.1 µg/mL	3.1 µg/mL	
Clc1ccc(CN2CCN=C2C(Cn2cncn2)c2ccccc2)c(Cl)c1 (stereo not shown) [Example 17, 1-(2,4-Dichlorophenylmethyl)-4,5-dihydro-2-[1-phenyl-2-(1,2,4-triazol-1-yl)ethyl]imidazole dihydrochloride]	50 µg/mL	50 µg/mL		50 µg/mL	50 µg/mL						
Brc1ccc(N2CCN=C2C(Cn2ccnc2)c2ccccc2)c(Br)c1 (stereo not shown) [Example 2, 1-(2,4-Dibromophenyl)-4,5-dihydro-2-[2-imidazol-1-yl)-1-phenylethyl]imidazole dihydrochloride]		1.5 µg/mL			1.5 µg/mL	3.1 µg/mL	12.5 µg/mL	12.5 µg/mL	2.5 µg/mL	50 µg/mL	
CCCCCCN1CCN=C1C(Cn1ccnc1)c1ccccc1.Cl (stereo not shown) [Example 25, 4,5-Dihydro-1-n-hexyl-2-[2-(imidazol-1-yl)-1-phenylethyl]imidazole hydrochloride]	25 µg/mL	100 µg/mL	100 µg/mL	100 µg/mL	100 µg/mL						
Clc1ccc(N2CCN=C2C(Cn2cncn2)c2ccccc2)c(Cl)c1 (stereo not shown) [Example 20, 1-(2,4-Dichlorophenyl)-4,5-dihydro-2-[1-phenyl-2-(1,2,4-triazol-1-yl)ethyl]imidazole]	12.5 µg/mL (≈ 32.4 µM)	25 µg/mL (≈ 64.7 µM)	25 µg/mL (≈ 64.7 µM)	25 µg/mL (≈ 64.7 µM)	25 µg/mL (≈ 64.7 µM)						
Cc1ccc(N2CCN=C2C(Cn2ccnc2)c2ccccc2)c(C)c1 (stereo not shown) [Example 24, 4,5-Dihydro-1-(2,4-dimethylphenyl)-2-[2-(imidazol-1-yl)-1-phenylethyl]imidazole dihydrochloride]	25 µg/mL	12.5 µg/mL	12.5 µg/mL	25 µg/mL	12.5 µg/mL						
CSc1nccn1CC(C1=NCCN1c1ccc(Cl)cc1Cl)c1ccccc1 (stereo not shown) [Example 22, 1-(2,4-Dichlorophenyl)-4,5-dihydro-2-[1-phenyl-2-(2-thiomethylimidazol-1-yl)ethyl]imidazole dihydrochloride]	6.2 µg/mL		1.5 µg/mL			6.2 µg/mL	3.1 µg/mL	1.5 µg/mL	3.1 µg/mL	3.1 µg/mL	
